Assay results from patent publication US20050256132A1, “Use of ER selective NF-kB inhibitors for the treatment of sepsis” (priority 2003, published 2005).
Where two headings read alike, the source gives them in different places.

Key:
CK = assay: Creatine kinase assay in ERα infected HAECT-1 cells (Table 2); format: cell-based, human; details: for EC50 / Emax: Homo sapiens; for EC50: HAECT1; for Emax: HAECT1, read-out: CK % Efficacy
Method: (§1) T-175 flasks of 100% confluent HAECT-1 cells (immortalized human aortic endothelial cells) were washed with 8 ml of HBSS (HEPES buffered saline solution) and infected for fours hours with 6 ml of a 1:10 dilution of Ad5-wt-hERα virus (an adenovirus transfection vector that mediates CMV promoter driven expression of human ERα) in phenol red free Endothelial Cell Basal medium (Clonetics, San Diego, Calif., Catalog # CC-3129) containing 0.25% bovine serum albumin (EDM-BSA). After four hours, cells were washed with EDM-BSA and incubated overnight in the same medium. Following overnight incubation, cells were washed with EDM-BSA and infected for 2 hours with 6 ml of a 1:10 dilution of Ad5-3x(NFκB).Luc virus (Adenovirus luciferase expression vector driven by three repeats of the MHC NFκb sites 5′ to the thymidine kinase promoter) in EDM-BSA. After two hours, cells were washed and incubated at 34° C. for one hour. Cells were then washed, trypsinized, counted, and resuspended in 95% FBS/5% dimethylsulfoxide at a concentration of […], frozen as 1 or 5 ml aliquots in cryo-vials and stored at −150° C. Control (no ER infection) cells were processed as above without Ad5-wt-hERα virus infection.
(§2) ERα infected HAECT-1 cells or control cells were thawed, diluted 42× in warm EBM-BSA, plated into 96-well plates at 0.1 ml/well and incubated for 4 hours at 34° C. Test compounds were added to the cells at 2× stocks in EBM-BSA containing 2 ng/ml IL-1β Ad6-IL-6(1250 bp).Luc virus and plates were returned to the incubator (34° C.). After […], cells were lysed with 50 μl of Promega Cell Culture Lysis reagenet for about 5 minutes at room temperature on a shaker. After lysing, 15 μl of lysate is transferred to luminometer plates for luciferase determination. Luciferase activity is evaluated using a Perkin Elmer Victor2 1420 multilabel counter. Creatine kinase was determined from the rate of increase in A340 following addition of 100 μl of CK assay reagent (Sigma catalog no. 47-10) to the remainder of the cell lysate.
(§3) For IC50 and EC50 calculations, mean IL-6, luciferase or CK values versus log10 of the compound concentration were fitted to a four parameter logistic equation. The IC50/EC50 value, ‘Hill slope,’ upper and lower limits of the curve were iteratively estimated.

ER/IL-6 = assay: Endothelial Cell ER/IL-6 Assay, IL-6 promoter luciferase (Table 2); format: cell-based, human; details: for Emax: read-out: IL6 luc % Efficacy
Method: as §1, §2, §3

[1] = Homo sapiens, HAECT1, ERα infected HAECT-1 cells, IL-1β
[2] = Homo sapiens, HAECT1, ERα infected HAECT-1 cells, IL-1β, read-out: IL6 luc IC50
[3] = ERα infected HAECT-1 cells, IL-1β
[4] = ERα infected HAECT-1 cells, IL-1β, read-out: IL6 luc IC50

| Compound | Emax (ER/IL-6; [1]) | IC50 (ER/IL-6; [2]) | CK % Efficacy (CK) | IL6 luc % Efficacy (ER/IL-6; [3]) | IC50 (ER/IL-6; [4]) | melting point | other results |
| --- | --- | --- | --- | --- | --- | --- | --- |
| COCCOC[C@](C#N)(C(=O)OC)[C@H](c1ccccc1OC)c1cccc2ccccc12 (relative stereo) [Example 144, Methyl (2S*,3S*)-2-cyano-2-[(2-methoxyethoxy)methyl]-3-(2-methoxyphenyl)-3-(1-naphthyl)propanoate] | 103% | 7 nM | – | – | – | – | EC50 (CK): 19 nM |
| COC[C@](C#N)(C(=O)OC)[C@H](c1cnc2ccccc2c1)c1ccccc1OC (relative stereo) [Example 165, Methyl (2S*,3R*)-2-cyano-2-(methoxymethyl)-3-(2-methoxyphenyl)-3-quinolin-3-ylpropanoate] | 21% | – | – | – | – | – | Emax (CK): -22% |
| COCCOC[C@](C#N)(C(=O)OC)[C@H](c1ccccc1OC)c1cccc2ccccc12 [Example 158, Methyl (2S,3S)-2-cyano-2-[(2-methoxyethoxy)methyl]-3-(2-methoxyphenyl)-3-(1-naphthyl)propanoate] | 121% | 4.5 nM | – | – | – | – | EC50 (CK): 55 nM; Emax (CK): 23% |
| COCC(C#N)(C(=O)OC)C(c1ccccc1OC)c1ccnc2ccccc12 (stereo not drawn) [Example 162, Methyl (RR,SS)-2-cyano-2-(methoxymethyl)-3-(2-methoxyphenyl)-3-quinolin-4-ylpropanoate] | – | – | −4% | 126% | 546 nM | – | – |
| COC(=O)[C@@](C)(C#N)[C@H](c1cnc2ccccc2c1)c1ccccc1OC [Example 163, Methyl (SS,RR)-2-cyano-3-(2-methoxyphenyl)-2-methyl-3-(quinolin-3-yl)propanoate] | – | – | −12% | −32% | 2.95 nM | – | – |
| COCCOCC(C#N)(C(=O)N1CCN(c2ncccn2)CC1)C(c1ccccc1OC)c1cccc2ccccc12 (stereo not drawn) [Example 167, (RR,SS)-2-[(2-Methoxyethoxy)methyl]-3-(2-methoxyphenyl)-3-(1-naphthyl)-2-[(4-pyrimidin-2-ylpiperazin-1-yl)carbonyl]propanenitrile] | – | – | −16% | 72% | 1230 nM | – | – |
| COCCOC[C@@](C#N)(C(=O)NC(C)(C)C)[C@@H](c1ccccc1OC)c1cccc2ccccc12 [Example 169, (RR,SS)-N-(tert-Butyl)-2-cyano-2-[(2-methoxyethoxy)methyl]-3-(2-methoxyphenyl)-3-(1-naphthyl)propanamide] | – | – | −8% | 97% | 331 nM | – | – |
| COCCOCC(C#N)(C(=O)N1CC=C(c2c[nH]c3ccccc23)CC1)C(c1ccccc1OC)c1cccc2ccccc12 (stereo not drawn) [Example 172, (RR,SS)-3-[4-(1H-indol-3-yl)-3,6-dihydropyridin-1(2H)-yl]-2-[(2-methoxyethoxy)methyl]-2-[(S*)-(2-methoxyphenyl)(1-naphthyl)methyl]-3-oxopropanenitrile] | – | – | −13% | 149% | 114 nM | – | – |
| COCCOC[C@@](C#N)(C(=O)OC(C)(C)C)[C@@H](c1ccccc1OC)c1cccc2ccccc12 [Example 173, tert-Butyl (RR,SS)-2-cyano-2-[(2-methoxyethoxy)methyl]-3-(2-methoxyphenyl)-3-(1-naphthyl)propanoate] | – | – | −13% | 124% | 72 nM | – | – |
| COc1ccccc1C(c1cccc2ccccc12)C(C#N)(Cc1cccnc1)C(=O)N1CCN(c2ncccn2)CC1 (stereo not drawn) [Example 174, (RR,SS)-3-(2-methoxyphenyl)-3-(1-naphthyl)-2-(pyridin-3-ylmethyl)-2-[(4-pyrimidin-2-ylpiperazin-1-yl)carbonyl]propanenitrile] | – | – | 34% | 49% | 1820 nM | – | – |
| COc1ccccc1[C@@H](c1cccc2ccccc12)[C@@](C#N)(Cc1cccnc1)C(=O)N1CCN(c2cnccn2)CC1 [Example 177, (RR,SS)-3-(2-methoxyphenyl)-3-(1-naphthyl)-2-[(4-pyrazin-2-ylpiperazin-1-yl)carbonyl]-2-(pyridin-3-ylmethyl)propanenitrile] | – | – | −32% | 91% | 1150 nM | – | – |
| COc1ccccc1[C@H](c1cccc2ccccc12)[C@@](C)(C#N)C(=O)N1CCC(=O)CC1 [Example 191, (2S,3S)-3-(2-methoxyphenyl)-2-methyl-3-(1-naphthyl)-2-[(4-oxopiperidin-1-yl)carbonyl]propanenitrile] | – | – | – | – | – | 209 to 210 °C | IC50 (ER/IL-6; Homo sapiens, HAECT1, read-out: IL6 luc IC50): 586 nM |
| CCC(=O)C1(c2ccccc2)CCN(C(=O)[C@](C)(C#N)[C@H](c2ccccc2OC)c2cccc3ccccc23)CC1 [Example 194, (2S,3S)-3-(2-methoxyphenyl)-2-methyl-3-(1-naphthyl)-2-[(4-phenyl-4-propionylpiperidin-1-yl)carbonyl]propanenitrile] | 150% | 132 nM | – | – | – | 126 to 128 °C | – |
| COc1ccccc1[C@H](c1cccc2ccccc12)[C@@](C)(C#N)C(=O)N1CCC(C(C)=O)(c2ccccc2)CC1 [Example 195, (2S)-3-(4-acetyl-4-phenylpiperidin-1-yl)-2-[(S)-(2-methoxyphenyl)(1-naphthyl)methyl]-2-methyl-3-oxopropanenitrile] | 74% | 710 nM | – | – | – | 134 to 135 °C | – |
| COc1ccccc1[C@H](c1cccc2ccccc12)[C@@](C)(C#N)C(=O)N1CCN(C2CCCCC2)CC1 [Example 196, (2S)-3-(4-cyclohexylpiperazin-1-yl)-2-[(s)-(2-methoxyphenyl)(1-naphthyl)methyl]-2-methyl-3-oxopropanenitrile] | 142% | 70 nM | – | – | – | 137 to 138 °C | – |
| COCCN1CCN(C(=O)[C@](C)(C#N)[C@H](c2ccccc2OC)c2cccc3ccccc23)CC1 [Example 197, (2S)-3-[4-(2-methoxyethyl)piperazin-1-yl]-2-[(S)-(2-methoxyphenyl)(1-naphthyl)methyl]-2-methyl-3-oxopropanenitrile] | 46% | 39 nM | – | – | – | 144 °C | – |
| COc1ccccc1[C@H](c1cccc2ccccc12)[C@@](C)(C#N)C(=O)N1CCN(CC(=O)N2CCCC2)CC1 [Example 201, (2S,3S)-3-(2-methoxyphenyl)-2-methyl-3-(1-naphthyl)-2-{[4-(2-oxo-2-pyrrolidin-1-ylethyl)piperazin-1-yl]carbonyl}propanenitrile] | 45% | 1090 nM | – | – | – | 203 °C | – |
| COc1ccccc1[C@H](c1cccc2ccccc12)[C@@](C)(C#N)C(=O)N1CCN(CCCN(C)C)CC1 [Example 202, (2S)-3-{4-[3-(dimethylamino)propyl]piperazin-1-yl}-2-[(S)-(2-methoxyphenyl)(1-naphthyl)methyl]-2-methyl-3-oxopropanenitrile] | 43% | – | – | – | – | 78 to 80 °C | – |
| COCCN1CCN(C(=O)C(C#N)(COC)C(c2ccccc2OC)c2cccc3ccccc23)CC1 (stereo not shown) [Example 206, 3-[4-(2-methoxyethyl)piperazin-1-yl]-2-(methoxymethyl)-2-[(2-methoxyphenyl)(1-naphthyl)methyl]-3-oxopropanenitrile] | 83% | 345 nM | – | – | – | 156 to 158 °C | – |
| COc1ccccc1C(c1cccc2ccccc12)C(C#N)(COCc1ccccc1)C(=O)N1CCN(CCN2CCOCC2)CC1 (stereo not shown) [Example 208, 2-[(benzyloxy)methyl]-3-(2-methoxyphenyl)-2-{[4-(2-morpholin-4-ylethyl)piperazin-1-yl]carbonyl}-3-(1-naphthyl)propanenitrile] | 50% | 13 nM | – | – | – | 162 °C | – |
| COC[C@](C#N)(C(=O)N1CCN(c2ncccn2)CC1)[C@H](c1ccccc1OC)c1cccc2ccccc12 [Example 210, (2S,3S)-2-(methoxymethyl)-3-(2-methoxyphenyl)-3-(1-naphthyl)-2-[(4-pyrimidin-2-ylpiperazin-1-yl)carbonyl]propanenitrile] | 132% | 16 nM | – | – | – | 140 °C | – |
| COC[C@@](C#N)(C(=O)N1CCN(c2ncccn2)CC1)[C@@H](c1ccccc1OC)c1cccc2ccccc12 [Example 211, (2R,3R)-2-(methoxymethyl)-3-(2-methoxyphenyl)-3-(1-naphthyl)-2-[(4-pyrimidin-2-ylpiperazin-1-yl)carbonyl]propanenitrile] | 78% | 268 nM | – | – | – | 136 to 137 °C | – |
